Patent US20170355705A1 (GlaxoSmithKline Intellectual Property (No.2) Limited, priority 2014, published 2017)

Biological target: T1, SIRT1 (Homo sapiens, UniProt Q96EB6)
T1 sequence (Q96EB6 1-747): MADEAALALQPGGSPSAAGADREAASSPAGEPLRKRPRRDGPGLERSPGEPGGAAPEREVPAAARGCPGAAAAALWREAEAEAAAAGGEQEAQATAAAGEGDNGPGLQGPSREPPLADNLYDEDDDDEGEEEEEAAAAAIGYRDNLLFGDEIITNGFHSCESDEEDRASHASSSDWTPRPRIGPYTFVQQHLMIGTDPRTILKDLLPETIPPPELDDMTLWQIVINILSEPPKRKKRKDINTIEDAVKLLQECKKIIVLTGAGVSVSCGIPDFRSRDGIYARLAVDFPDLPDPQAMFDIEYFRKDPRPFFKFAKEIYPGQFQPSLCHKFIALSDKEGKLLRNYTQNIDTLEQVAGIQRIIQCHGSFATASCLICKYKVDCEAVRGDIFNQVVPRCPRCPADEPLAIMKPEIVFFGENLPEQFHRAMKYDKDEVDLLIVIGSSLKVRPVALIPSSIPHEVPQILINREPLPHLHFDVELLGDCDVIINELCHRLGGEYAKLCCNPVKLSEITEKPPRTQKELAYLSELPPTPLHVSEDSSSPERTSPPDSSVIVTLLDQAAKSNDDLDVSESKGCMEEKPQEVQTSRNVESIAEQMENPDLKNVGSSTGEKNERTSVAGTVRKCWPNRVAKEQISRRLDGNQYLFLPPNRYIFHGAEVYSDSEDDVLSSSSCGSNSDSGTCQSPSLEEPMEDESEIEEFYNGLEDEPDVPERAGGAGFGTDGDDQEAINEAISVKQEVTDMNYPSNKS
Assay: Trp mass spectrometry assay of SIRT1 activity (EC1.5, percent maximum activation)
Assay type: biochemical
Conditions: Trp mass spectrometry assay; 0.5 μM peptide substrate, 120 μM βNAD+, 10 nM SIRT1, 25 minutes at 25° C.
In short: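 Sirtuin deacetylation was run with purified N-His SIRT1 and the 5TMR Trp peptide across a compound titration, stopped after 25 min by acidification, and analysed by MS for OAADPR. Endpoint lay within the linear range.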

Compound | TRP Activity (EC1.5, concentration of test compound that results in 150% activation of SIRT1) | TRP MAX RESP (percent maximum fold activation)
CN1CCN(c2ccc3c(n2)N(C(=O)Nc2cnccn2)[C@H]2CCN3C2)CC1 [Example 206, (4S)-7-(4-methylpiperazin-1-yl)-N-(pyrazin-2-yl)-3,4-dihydro-1,4-methanopyrido[2,3-b][1,4]diazepine-5(2H)-carboxamide] | B (EC1.5 1-25 μM) | A (Fold activation ≧150%)
O=C(Nc1cnccn1)N1c2nc(-c3ccc(C(F)(F)F)nc3)ccc2N2CC[C@H]1C2 [Example 208, (4S)-N-(pyrazin-2-yl)-7-(6-(trifluoromethyl)pyridin-3-yl)-3,4-dihydro-1,4-methanopyrido[2,3-b][1,4]diazepine-5(2H)-carboxamide] | B (EC1.5 1-25 μM) | A (Fold activation ≧150%)
Cc1ccc(-c2ccc3c(n2)N(C(=O)Nc2cccc4cnccc24)[C@H]2CCN3C2)cn1 [Example 209, (4S)-N-(isoquinolin-5-yl)-7-(6-methylpyridin-3-yl)-3,4-dihydro-1,4-methanopyrido[2,3-b][1,4]diazepine-5(2H)-carboxamide] | B (EC1.5 1-25 μM) | A (Fold activation ≧150%)
Cc1cc(-c2nc3c(cc2Cl)N2CC[C@@H](C2)N3C(=O)Nc2cccnc2)ccn1 [Example 210, (9S)-4-chloro-5-(2-methylpyridin-4-yl)-N-(pyridin-3-yl)-1,6,8-triazatricyclo[7.2.1.0{2,7}]dodeca-2,4,6-triene-8-carboxamide] | B (EC1.5 1-25 μM) | A (Fold activation ≧150%)
CC1(C)CN(c2ccc3c(n2)N(C(=O)Nc2cnccn2)[C@H]2CCN3C2)CCO1 [Example 211, (4S)-7-(2,2-dimethylmorpholino)-N-(pyrazin-2-yl)-3,4-dihydro-1,4-methanopyrido[2,3-b][1,4]diazepine-5(2H)-carboxamide] | A (EC1.5<1 μM) | A (Fold activation ≧150%)
Cc1cc(-c2ccc3c(n2)N(C(=O)Nc2cnccn2)[C@H]2CCN3C2)cnn1 [Example 212, (4S)-7-(6-methylpyridazin-4-yl)-N-(pyrazin-2-yl)-3,4-dihydro-1,4-methanopyrido[2,3-b][1,4]diazepine-5(2H)-carboxamide] | B (EC1.5 1-25 μM) | A (Fold activation ≧150%)
Cc1ncc(-c2ccc3c(n2)N(C(=O)Nc2cnccn2)[C@H]2CCN3C2)s1 [Example 214, (4S)-7-(2-methylthiazol-5-yl)-N-(pyrazin-2-yl)-3,4-dihydro-1,4-methanopyrido[2,3-b][1,4]diazepine-5(2H)-carboxamide] | B (EC1.5 1-25 μM) | A (Fold activation ≧150%)
COC(=O)c1cc(-c2ccc3c(n2)N(C(=O)Nc2cnccn2)[C@H]2CCN3C2)ccn1 [Example 215, methyl 4-((4S)-5-(pyrazin-2-ylcarbamoyl)-2,3,4,5-tetrahydro-1,4-methanopyrido[2,3-b][1,4]diazepin-7-yl)picolinate] | B (EC1.5 1-25 μM) | A (Fold activation ≧150%)
O=C(Nc1cnccn1)N1c2nc(-c3ccnc(C(F)F)c3)ccc2N2CC[C@H]1C2 [Example 216, (4S)-7-(2-(difluoromethyl)pyridin-4-yl)-N-(pyrazin-2-yl)-3,4-dihydro-1,4-methanopyrido[2,3-b][1,4]diazepine-5(2H)-carboxamide] | A (EC1.5<1 μM) | A (Fold activation ≧150%)
Cc1cc(-c2ccc3c(n2)N(C(=O)Nc2cnccn2)[C@H]2CCN3C2)c(F)cn1 [Example 217, (4S)-7-(5-fluoro-2-methylpyridin-4-yl)-N-(pyrazin-2-yl)-3,4-dihydro-1,4-methanopyrido[2,3-b][1,4]diazepine-5(2H)-carboxamide] | B (EC1.5 1-25 μM) | A (Fold activation ≧150%)
O=C(Nc1cnccn1)N1c2nc(-c3ccnc(CO)c3)ccc2N2CC[C@H]1C2 [Example 218, (4S)-7-(2-(Hydroxymethyl)pyridin-4-yl)-N-(pyrazin-2-yl)-3,4-dihydro-1,4 methanopyrido[2,3-b][1,4]diazepine-5(2H)-carboxamide] | B (EC1.5 1-25 μM) | A (Fold activation ≧150%)
N#Cc1ccc(-c2ccc3c(n2)N(C(=O)Nc2cnccn2)[C@H]2CCN3C2)cn1 [Example 219, (4S)-7-(6-cyanopyridin-3-yl)-N-(pyrazin-2-yl)-3,4-dihydro-1,4-methanopyrido[2,3-b][1,4]diazepine-5(2H)-carboxamide] | C (EC1.5>25 μM) | B (Fold Activation <150%)
CCc1cnc(NC(=O)N2c3nc(-c4ccc(C)nc4)ccc3N3CC[C@H]2C3)cn1 [Example 220, (4S)-N-(5-ethylpyrazin-2-yl)-7-(6-methylpyridin-3-yl)-3,4-dihydro-1,4-methanopyrido[2,3-b][1,4]diazepine-5(2H)-carboxamide] | B (EC1.5 1-25 μM) | A (Fold activation ≧150%)
Cc1cc(-c2ccc3c(n2)N(C(=O)Nc2cncc(OC(C)C)n2)[C@H]2CCN3C2)ccn1 [Example 221, (4S)-N-(6-isopropoxypyrazin-2-yl)-7-(2-methylpyridin-4-yl)-3,4-dihydro-1,4-methanopyrido[2,3-b][1,4]diazepine-5(2H)-carboxamide] | A (EC1.5<1 μM) | A (Fold activation ≧150%)
Cc1cc(-c2ccc3c(n2)N(C(=O)Nc2cnccn2)[C@H]2CCN3C2)cnc1C#N [Example 222, (4S)-7-(6-cyano-5-methylpyridin-3-yl)-N-(pyrazin-2-yl)-3,4-dihydro-1,4-methanopyrido[2,3-b][1,4]diazepine-5(2H)-carboxamide] | B (EC1.5 1-25 μM) | A (Fold activation ≧150%)
Cc1cc(-c2ccc3c(n2)N(C(=O)Nc2cnccn2)[C@H]2CCN3C2)cc(C(F)(F)F)n1 [Example 223, (4S)-7-(2-methyl-6-(trifluoromethyl)pyridin-4-yl)-N-(pyrazin-2-yl)-3,4-dihydro-1,4-methanopyrido[2,3-b][1,4]diazepine-5(2H)-carboxamide] | A (EC1.5<1 μM) | A (Fold activation ≧150%)
O=C(Nc1cccnc1)N1c2nc(-c3ccc(C(F)(F)F)nc3)ccc2N2CC[C@H]1C2 [Example 224, (4S)-N-(pyridin-3-yl)-7-(6-(trifluoromethyl)pyridin-3-yl)-3,4-dihydro-1,4-methanopyrido[2,3-b][1,4]diazepine-5(2H)-carboxamide] | B (EC1.5 1-25 μM) | A (Fold activation ≧150%)
CCn1cc(-c2ccc3c(n2)N(C(=O)Nc2cnccn2)[C@H]2CCN3C2)cn1 [Example 225, (4S)-7-(1-ethyl-1H-pyrazol-4-yl)-N-(pyrazin-2-yl)-3,4-dihydro-1,4-methanopyrido[2,3-b][1,4]diazepine-5(2H)-carboxamide] | B (EC1.5 1-25 μM) | A (Fold activation ≧150%)
O=C(Nc1cnccn1)N1c2nc(-c3ccc(OC(F)F)nc3)ccc2N2CC[C@H]1C2 [Example 226, (4S)-7-(6-(difluoromethoxy)pyridin-3-yl)-N-(pyrazin-2-yl)-3,4-dihydro-1,4-methanopyrido[2,3-b][1,4]diazepine-5(2H)-carboxamide] | B (EC1.5 1-25 μM) | A (Fold activation ≧150%)
